Measurements from patent US12077503B2, “Substituted cyclic amides and their use as herbicides” (FMC CORPORATION, priority 2015, dated 2024).

Experiments:
Format in all cases: in vivo
[1] = system: velvetleaf (Abutilon theophrasti); test: Test G Pre-Emergence Protocol; conditions: Abutilon theophrasti, pre-emergence, 312 h, evaluated after 13 days; for pest or weed control at 15.625 g/ha: 15.625 g ai/ha; for pest or weed control at 15.625 g/ha / pest or weed control at 250 g/ha: read-out: Velvetleaf damage rating (100=total damage to plant; 0=no damage to plant); for pest or weed control at 62.5 g/ha: 62.5 g ai/ha, 100=total damage to plant, 0=no damage to plant, read-out: Velvetleaf damage rating; for pest or weed control at 250 g/ha: 250 g ai/ha
Procedure, shortened: (§1)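 Glasshouse pre-emergence test: soil-sown seeds, sprayed after 1 d at 15.625, 62.5 or 250 g/ha. Conditions 24/16° C day/night, 14 h light, 65% humidity, watering twice daily. Rating 13 d post-spray (100 = total damage).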

[2] = system: corn (Zea mays); test: Test G Pre-Emergence Protocol; conditions: Zea mays, pre-emergence, 312 h, evaluated after 13 days; for plant injury at 15.625 g/ha: 15.625 g ai/ha; for plant injury at 15.625 g/ha / plant injury at 250 g/ha: read-out: Corn damage rating (100=total damage to plant; 0=no damage to plant); for plant injury at 62.5 g/ha: 62.5 g ai/ha, 100=total damage to plant, 0=no damage to plant, read-out: Corn damage rating; for plant injury at 250 g/ha: 250 g ai/ha
Procedure, shortened: as §1

[3] = system: redroot pigweed (Amaranthus retroflexus); test: Test G Pre-Emergence Protocol; conditions: Amaranthus retroflexus, pre-emergence, 312 h, evaluated after 13 days; for pest or weed control at 15.625 g/ha: 15.625 g ai/ha; for pest or weed control at 15.625 g/ha / pest or weed control at 250 g/ha: read-out: Pigweed, Redroot damage rating (100=total damage to plant; 0=no damage to plant); for pest or weed control at 62.5 g/ha: 62.5 g ai/ha, 100=total damage to plant, 0=no damage to plant, read-out: Pigweed, Redroot damage rating; for pest or weed control at 250 g/ha: 250 g ai/ha
Procedure, shortened: as §1

[4] = system: ivy-leaved morning glory (Ipomoea hederacea); test: Test G Pre-Emergence Protocol; conditions: Ipomoea, pre-emergence, 312 h, evaluated after 13 days; for pest or weed control at 15.625 g/ha: 15.625 g ai/ha; for pest or weed control at 15.625 g/ha / pest or weed control at 250 g/ha: read-out: Morningglory, Ivy-leaved damage rating (100=total damage to plant; 0=no damage to plant); for pest or weed control at 62.5 g/ha: 62.5 g ai/ha, 100=total damage to plant, 0=no damage to plant, read-out: Morningglory, Ivy-leaved damage rating; for pest or weed control at 250 g/ha: 250 g ai/ha
Procedure, shortened: as §1

[5] = system: barnyardgrass (Echinochloa crus-galli); test: Test G Pre-Emergence Protocol; conditions: Echinochloa crus-galli, pre-emergence, 312 h, evaluated after 13 days; for pest or weed control at 15.625 g/ha: 15.625 g ai/ha; for pest or weed control at 15.625 g/ha / pest or weed control at 250 g/ha: read-out: Barnyardgrass damage rating (100=total damage to plant; 0=no damage to plant); for pest or weed control at 62.5 g/ha: 62.5 g ai/ha, 100=total damage to plant, 0=no damage to plant, read-out: Barnyardgrass damage rating; for pest or weed control at 250 g/ha: 250 g ai/ha
Procedure, shortened: as §1

[6] = system: giant foxtail (Setaria faberi); test: Test G Pre-Emergence Protocol; conditions: Setaria faberi, pre-emergence, 312 h, evaluated after 13 days; for pest or weed control at 15.625 g/ha: 15.625 g ai/ha; for pest or weed control at 15.625 g/ha / pest or weed control at 250 g/ha: read-out: Foxtail, Giant damage rating (100=total damage to plant; 0=no damage to plant); for pest or weed control at 62.5 g/ha: 62.5 g ai/ha, 100=total damage to plant, 0=no damage to plant, read-out: Foxtail, Giant damage rating; for pest or weed control at 250 g/ha: 250 g ai/ha
Procedure, shortened: as §1

[7] = system: velvetleaf (Abutilon theophrasti); test: Test G Post-Emergence Protocol; conditions: Abutilon theophrasti, post-emergence, 312 h, read-out: Velvetleaf damage rating; for pest or weed control at 15.625 g/ha: 15.625 g ai/ha, evaluated after 13 days (100=total damage to plant; 0=no damage to plant); for pest or weed control at 62.5 g/ha: 62.5 g ai/ha; for pest or weed control at 62.5 g/ha / pest or weed control at 250 g/ha: evaluated after 13 days, 100=total damage to plant, 0=no damage to plant; for pest or weed control at 250 g/ha: 250 g ai/ha
Procedure, shortened: (§2)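 Foliar application was made 8 days after sowing, using an aqueous spray of the active in acetone/water (50:50) with 0.5% Tween 20, at doses of 15.625, 62.5 or 250 g/ha. Injury was assessed 13 days later, where 100 meant the plant was fully damaged.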

[8] = system: corn (Zea mays); test: Test G Post-Emergence Protocol; conditions: Zea mays, post-emergence, 312 h, read-out: Corn damage rating; for plant injury at 15.625 g/ha: 15.625 g ai/ha, evaluated after 13 days (100=total damage to plant; 0=no damage to plant); for plant injury at 62.5 g/ha: 62.5 g ai/ha; for plant injury at 62.5 g/ha / plant injury at 250 g/ha: evaluated after 13 days, 100=total damage to plant, 0=no damage to plant; for plant injury at 250 g/ha: 250 g ai/ha
Procedure, shortened: as §2

[9] = system: redroot pigweed (Amaranthus retroflexus); test: Test G Post-Emergence Protocol; conditions: Amaranthus retroflexus, post-emergence, 312 h, read-out: Pigweed, Redroot damage rating; for pest or weed control at 15.625 g/ha: 15.625 g ai/ha, evaluated after 13 days (100=total damage to plant; 0=no damage to plant); for pest or weed control at 62.5 g/ha: 62.5 g ai/ha; for pest or weed control at 62.5 g/ha / pest or weed control at 250 g/ha: evaluated after 13 days, 100=total damage to plant, 0=no damage to plant; for pest or weed control at 250 g/ha: 250 g ai/ha
Procedure, shortened: as §2

[10] = system: ivy-leaved morning glory (Ipomoea hederacea); test: Test G Post-Emergence Protocol; conditions: Ipomoea, post-emergence, 312 h, read-out: Morningglory, Ivy-leaved damage rating; for pest or weed control at 15.625 g/ha: 15.625 g ai/ha, evaluated after 13 days (100=total damage to plant; 0=no damage to plant); for pest or weed control at 62.5 g/ha: 62.5 g ai/ha; for pest or weed control at 62.5 g/ha / pest or weed control at 250 g/ha: evaluated after 13 days, 100=total damage to plant, 0=no damage to plant; for pest or weed control at 250 g/ha: 250 g ai/ha
Procedure, shortened: as §2

[11] = system: barnyardgrass (Echinochloa crus-galli); test: Test G Post-Emergence Protocol; conditions: Echinochloa crus-galli, post-emergence, 312 h, read-out: Barnyardgrass damage rating; for pest or weed control at 15.625 g/ha: 15.625 g ai/ha, evaluated after 13 days (100=total damage to plant; 0=no damage to plant); for pest or weed control at 62.5 g/ha: 62.5 g ai/ha; for pest or weed control at 62.5 g/ha / pest or weed control at 250 g/ha: evaluated after 13 days, 100=total damage to plant, 0=no damage to plant; for pest or weed control at 250 g/ha: 250 g ai/ha
Procedure, shortened: as §2

[12] = system: giant foxtail (Setaria faberi); test: Test G Post-Emergence Protocol; conditions: Setaria faberi, post-emergence, 312 h, read-out: Foxtail, Giant damage rating; for pest or weed control at 15.625 g/ha: 15.625 g ai/ha, evaluated after 13 days (100=total damage to plant; 0=no damage to plant); for pest or weed control at 62.5 g/ha: 62.5 g ai/ha; for pest or weed control at 62.5 g/ha / pest or weed control at 250 g/ha: evaluated after 13 days, 100=total damage to plant, 0=no damage to plant; for pest or weed control at 250 g/ha: 250 g ai/ha
Procedure, shortened: as §2

SMILES	pest or weed control at 15.625 g/ha [1] [%]	pest or weed control at 62.5 g/ha [1] [%]	pest or weed control at 250 g/ha [1] [%]	plant injury at 15.625 g/ha [2] [%]	plant injury at 62.5 g/ha [2] [%]	plant injury at 250 g/ha [2] [%]	pest or weed control at 15.625 g/ha [3] [%]	pest or weed control at 62.5 g/ha [3] [%]	pest or weed control at 250 g/ha [3] [%]	pest or weed control at 15.625 g/ha [4] [%]	pest or weed control at 62.5 g/ha [4] [%]	pest or weed control at 250 g/ha [4] [%]	pest or weed control at 15.625 g/ha [5] [%]	pest or weed control at 62.5 g/ha [5] [%]	pest or weed control at 250 g/ha [5] [%]	pest or weed control at 15.625 g/ha [6] [%]	pest or weed control at 62.5 g/ha [6] [%]	pest or weed control at 250 g/ha [6] [%]	pest or weed control at 15.625 g/ha [7] [%]	pest or weed control at 62.5 g/ha [7] [%]	also measured
CN1C[C@H](c2ccc(C(F)(F)F)cc2)[C@@H](C(=O)Nc2cnccc2C#N)C1=O (racemic) [Compound 1760]	0	0	0	0	0	0	0	0	0	0	0	0	0	0	0	0	0	30	0	0	pest or weed control at 250 g/ha [7]: 10%; plant injury at 15.625 g/ha [8]: 0%; plant injury at 62.5 g/ha [8]: 0%; plant injury at 250 g/ha [8]: 10%; pest or weed control at 15.625 g/ha [9]: 0%; pest or weed control at 62.5 g/ha [9]: 0%; pest or weed control at 250 g/ha [9]: 0%; pest or weed control at 15.625 g/ha [10]: 0%; pest or weed control at 62.5 g/ha [10]: 0%; pest or weed control at 250 g/ha [10]: 20%; pest or weed control at 15.625 g/ha [11]: 0%; pest or weed control at 62.5 g/ha [11]: 0%; pest or weed control at 250 g/ha [11]: 10%; pest or weed control at 15.625 g/ha [12]: 0%; pest or weed control at 62.5 g/ha [12]: 0%; pest or weed control at 250 g/ha [12]: 20%
C=Cc1cccc([C@@H]2CN(C)C(=O)[C@H]2C(=O)Nc2cccc(F)c2F)c1 (racemic) [Compound 1762]	0	0	10	0	30	80	0	10	20	0	10	10	70	80	80	70	80	80	10	0	pest or weed control at 250 g/ha [7]: 70%; plant injury at 15.625 g/ha [8]: 20%; plant injury at 62.5 g/ha [8]: 30%; plant injury at 250 g/ha [8]: 80%; pest or weed control at 15.625 g/ha [9]: 20%; pest or weed control at 62.5 g/ha [9]: 0%; pest or weed control at 250 g/ha [9]: 10%; pest or weed control at 15.625 g/ha [10]: 30%; pest or weed control at 62.5 g/ha [10]: 60%; pest or weed control at 250 g/ha [10]: 70%; pest or weed control at 15.625 g/ha [11]: 10%; pest or weed control at 62.5 g/ha [11]: 50%; pest or weed control at 250 g/ha [11]: 80%; pest or weed control at 15.625 g/ha [12]: 60%; pest or weed control at 62.5 g/ha [12]: 70%; pest or weed control at 250 g/ha [12]: 80%
CCOc1cc([C@@H]2CN(C)C(=O)[C@H]2C(=O)Nc2cccc(F)c2C)ccc1F (racemic) [Compound 1767]	0	0	30	0	30	60	0	0	0	0	0	20	20	60	80	60	80	90	0	0	pest or weed control at 250 g/ha [7]: 60%; plant injury at 15.625 g/ha [8]: 10%; plant injury at 62.5 g/ha [8]: 10%; plant injury at 250 g/ha [8]: 60%; pest or weed control at 15.625 g/ha [9]: 0%; pest or weed control at 62.5 g/ha [9]: 0%; pest or weed control at 250 g/ha [9]: 20%; pest or weed control at 15.625 g/ha [10]: 30%; pest or weed control at 62.5 g/ha [10]: 30%; pest or weed control at 250 g/ha [10]: 60%; pest or weed control at 15.625 g/ha [11]: 40%; pest or weed control at 62.5 g/ha [11]: 50%; pest or weed control at 250 g/ha [11]: 80%; pest or weed control at 15.625 g/ha [12]: 70%; pest or weed control at 62.5 g/ha [12]: 70%; pest or weed control at 250 g/ha [12]: 80%
